# What was measured:
# Assay type in all cases: cell-based
# Escherichia coli = test: ASTM E2315-16 Time-Kill Procedure; conditions: 30 seconds
# Procedure: (§1) Select compounds were tested for antimicrobial activity using ASTM method […]-16 (Standard Guide for Assessment of Antimicrobial Activity using a Time-Kill Procedure). Six microbes were tested: Candida albicans, Staphylococcus aureus, Staphylococcus epidermidis. Escherichia coli, Salmonella abony, and Listeria monocytogenes. Four chlorhexidine salts were tested: chlorhexidine di-α-glucoheptonate (Sample G), chlorhexidine di-β73-glucoheptonate (Sample H), chlorhexidine digluconate (Sample I), and chlorhexidine diacetate (Sample P). Both chlorhexidine diglucoheptonate salts were prepared at a 2:1 molar ratio of glucoheptonic acid to chlorhexidine. Dilutions of each salt were prepared using sterile water (20-30 ppm hardness), to achieve the desired wt. % concentration. Benzalkonium salts were also tested using the same procedure as set forth in Example 13. The samples were benzalkonium chloride (C12-C16) (Sample C), benzalkonium chloride (C12-C14) (Sample D), benzalkonium chloride in combination with a stoichiometric amount of α-glucoheptonate (Sample F), and benzalkonium chloride in combination with a molar excess of α-glucoheptonate (Sample N). Sample F was prepared by mixing and extensively heating a stoichiometric quantity (1:1) of sodium α-glucoheptonate with benzalkonium chloride, typified by the C12-14 alkyl chain. Sample N was prepared by simply blending benzalkonium chloride, typified by the C12-16 chain, with a molar excess of sodium α-glucoheptonate (1.6:1). Both Samples F and N contain sodium chloride.
# Salmonella abony = test: ASTM E2315-16 Time-Kill Procedure; conditions: 30 seconds
# Procedure: as §1
# Listeria monocytogenes = test: ASTM E2315-16 Time-Kill Procedure; conditions: for Log Reduction: 30 seconds
# Procedure: as §1
# [1] = test system: Staphylococcus epidermidis; test: ASTM E2315-16 Time-Kill Procedure; conditions: 30 seconds
# Procedure: as §1, with “concentration. Two glucoheptonic acids were evaluated for antimicrobial activity against the same six microbes as Example 13. Sample L was α-glucoheptonic acid. Sample M was β73-glucoheptonic acid.” for “concentration.”
# Candida albicans = test: ASTM E2315-16 Time-Kill Procedure; conditions: for Log Reduction: 30 seconds
# Procedure: as §1, with “concentration. Two glucoheptonic acids were evaluated for antimicrobial activity against the same six microbes as Example 13. Sample L was α-glucoheptonic acid. Sample M was β73-glucoheptonic acid.” for “concentration.”
# Staphylococcus aureus = test: ASTM E2315-16 Time-Kill Procedure; conditions: 30 seconds
# Procedure: as §1, with “concentration. Two glucoheptonic acids were evaluated for antimicrobial activity against the same six microbes as Example 13. Sample L was α-glucoheptonic acid. Sample M was β73-glucoheptonic acid.” for “concentration.”
# [2] = test system: all microbes (Candida albicans, Staphylococcus aureus, Staphylococcus epidermidis, Escherichia coli, Salmonella abony, Listeria monocytogenes); test: ASTM E2315-16 Time-Kill Procedure, average across all microbes; conditions: for Log Reduction, Average, all microbes: 30 seconds; for average Log Reduction (LR) in microbial population across all microbes: 10 minutes
# Procedure: as §1, with “concentration. Samples G, H, I, and P were also tested at a concentration of 0.60 wt % active and evaluated for the average Log Reduction in microbial population at 10 minutes, across all microbes. A further test was conducted at a concentration of 1.0 wt % active and evaluated for the average Log Reduction in microbial population at 10 minutes, across all microbes.” for “concentration.”, “chloride. A further antimicrobial test was conducted to determine the log reduction at 10 minutes. Samples C, D, F, and N are as defined above.” for “chloride.”
SMILES,Log Reduction (Escherichia coli; 0.20% (wt. %)),Log Reduction (Escherichia coli; 0.60% (wt. %)),Log Reduction (Escherichia coli; 1.00% (wt. %)),Log Reduction (Salmonella abony; 0.20% (wt. %)),Log Reduction (Salmonella abony; 0.60% (wt. %)),Log Reduction (Salmonella abony; 1.00% (wt. %)),Log Reduction (Listeria monocytogenes; 0.20% (wt. %)),Log Reduction (Listeria monocytogenes; 0.60% (wt. %)),Log Reduction (Listeria monocytogenes; 1.00% (wt. %)),Log Reduction ([1]; 0.20% (wt. %)),Log Reduction ([1]; 0.60% (wt. %)),Log Reduction ([1]; 1.00% (wt. %)),Log Reduction (Candida albicans; 0.20% (wt. %)),Log Reduction (Candida albicans; 0.60% (wt. %)),Log Reduction (Candida albicans; 1.00% (wt. %)),Log Reduction (Staphylococcus aureus; 0.20% (wt. %)),Log Reduction (Staphylococcus aureus; 0.60% (wt. %)),Log Reduction (Staphylococcus aureus; 1.00% (wt. %)),"Log Reduction, Average, all microbes ([2]; 0.20% (wt. %))","Log Reduction, Average, all microbes ([2]; 0.60% (wt. %))",also measured
"N=C(NCCCCCCNC(=N)NC(=N)Nc1ccc(Cl)cc1)NC(=N)Nc1ccc(Cl)cc1.O=C(O)C(O)C(O)C(O)C(O)C(O)CO.O=C(O)C(O)C(O)C(O)C(O)C(O)CO [Sample G, chlorhexidine di-α-glucoheptonate]",3.57,3.66,3.77,3.04,3.14,3.39,1.34,1.49,4.99,0.95,1.91,3.65,0.75,1.45,4.56,0.77,1.07,3.06,1.74,2.12,"performance in the Time-Kill Test (Listeria monocytogenes; in words): performed very strongly; performance in the Time-Kill Test (Candida albicans; in words): performed very strongly; Log Reduction, Average, all microbes ([2]; 1.00% (wt. %)): 3.90; average Log Reduction (LR) in microbial population across all microbes ([2]; 0.60 wt % active): 3.85; average Log Reduction (LR) in microbial population across all microbes ([2]; 1.0 wt % active): 5.34"
"N=C(NCCCCCCNC(=N)NC(=N)Nc1ccc(Cl)cc1)NC(=N)Nc1ccc(Cl)cc1.O=C(O)[C@H](O)[C@@H](O)[C@H](O)[C@H](O)CO.O=C(O)[C@H](O)[C@@H](O)[C@H](O)[C@H](O)CO [Sample I, chlorhexidine digluconate]",2.93,3.07,3.27,1.86,2.63,2.89,1.99,3.13,3.91,2.00,3.08,3.25,2.91,4.35,6.40,1.77,3.07,3.37,2.24,3.22,"Log Reduction, Average, all microbes ([2]; 1.00% (wt. %)): 3.85; average Log Reduction (LR) in microbial population across all microbes ([2]; 0.60 wt % active): 4.84; average Log Reduction (LR) in microbial population across all microbes ([2]; 1.0 wt % active): 5.46"
